Assay results published in ChEMBL document CHEMBL6083271 (J Med Chem, 2024).
Calls of active or inactive are those of the source. No cut-off for these calls is given here.

How the values were obtained:
[1] = test system: RS4-11; test: Antiproliferative activity against human RS4;11 cells harbouring p53 wild type assessed as inhibition of cell growth measured after 4 days by WST-8 assay; format: functional, cell-based; details: RS4-11, 96 h
[2] = test system: RS4-11; test: Antiproliferative activity against human RS4;11 cells harbouring p53 mutant assessed as inhibition of cell growth measured after 4 days by WST-8 assay; format: functional, cell-based; details: RS4-11, 96 h
[3] = test system: RS4-11; test: Antitumor activity against human RS4;11 cells xenografted in SCID mouse model assessed as tumor regression at 50 mg/kg, iv qd administered every other for 2 weeks by caliper method; format: functional, organism-based
[4] = test system: RS4-11; test: Antiproliferative activity against human RS4;11 cells assessed as inhibition of cell growth measured after 4 days by WST-8 assay; format: functional, cell-based
[5] = target: Protein cereblon/Eukaryotic peptide chain release factor GTP-binding subunit ERF3A (Homo sapiens) (UniProt Q96SW2+P15170); test: PROTAC activity at CRBN/GSPT1 in human RS4;11 cells assessed as induction of GSPT1 degradation at 10 to 1000 nM measured after 4 hrs by Western blot analysis; format: cell-based; details: dose 10-1000 nM
Sequence of Protein cereblon/Eukaryotic peptide chain release factor GTP-binding subunit ERF3A (Homo sapiens) (P15170 whole entry, looked up): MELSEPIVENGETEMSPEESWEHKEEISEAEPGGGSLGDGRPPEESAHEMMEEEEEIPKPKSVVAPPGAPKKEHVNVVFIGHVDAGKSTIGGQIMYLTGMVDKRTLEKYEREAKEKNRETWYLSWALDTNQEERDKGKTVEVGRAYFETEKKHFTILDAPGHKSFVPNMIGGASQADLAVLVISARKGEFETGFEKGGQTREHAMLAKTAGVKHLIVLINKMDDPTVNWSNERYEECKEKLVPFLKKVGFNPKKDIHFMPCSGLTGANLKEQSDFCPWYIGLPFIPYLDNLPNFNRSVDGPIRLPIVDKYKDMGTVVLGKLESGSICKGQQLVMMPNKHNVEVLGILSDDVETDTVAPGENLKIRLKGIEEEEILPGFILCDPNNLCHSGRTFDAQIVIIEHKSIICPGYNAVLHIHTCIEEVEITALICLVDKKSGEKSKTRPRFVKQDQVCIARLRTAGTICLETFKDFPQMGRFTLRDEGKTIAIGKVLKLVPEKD
Sequence of Protein cereblon/Eukaryotic peptide chain release factor GTP-binding subunit ERF3A (Homo sapiens) (Q96SW2 whole entry, looked up): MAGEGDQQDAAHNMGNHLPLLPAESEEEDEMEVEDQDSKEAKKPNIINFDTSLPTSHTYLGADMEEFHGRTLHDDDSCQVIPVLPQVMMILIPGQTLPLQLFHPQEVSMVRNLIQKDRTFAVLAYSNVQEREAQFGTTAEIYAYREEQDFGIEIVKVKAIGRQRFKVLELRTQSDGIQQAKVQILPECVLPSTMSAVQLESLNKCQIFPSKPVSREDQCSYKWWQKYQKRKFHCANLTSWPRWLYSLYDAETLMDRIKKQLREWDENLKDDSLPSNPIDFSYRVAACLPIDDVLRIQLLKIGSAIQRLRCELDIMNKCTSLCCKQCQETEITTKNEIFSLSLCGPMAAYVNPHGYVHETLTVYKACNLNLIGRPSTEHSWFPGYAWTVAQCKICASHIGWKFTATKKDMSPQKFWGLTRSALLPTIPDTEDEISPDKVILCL

Structure (SMILES)	IC50 [1] [nM]	IC50 [2] [nM]	Activity [3]	IC50 ([4]; RS4-11, 96 h) [nM]	Activity ([4]; time 4.0 day)	Activity [5]
O=C1CCC(N2Cc3c(C#CCCCNC(=O)c4ccc(NC(=O)[C@@H]5NC6(CCCCC6)[C@@]6(C(=O)Nc7cc(Cl)ccc76)[C@H]5c5cccc(Cl)c5F)cc4F)cccc3C2=O)C(=O)N1 (stereo not given in full)	3	> 1000				
O=C1CCC(N2Cc3c(C#CCCCNC(=O)C4CCN(C(=O)[C@@H]5NC6(CCCCC6)[C@@]6(C(=O)Nc7cc(Cl)ccc76)C5c5cccc(Cl)c5F)CC4)cccc3C2=O)C(=O)N1 (single isomer, unassigned)	> 1000	> 1000				
O=C1CCC(N2Cc3c(C#CCCCNC(=O)[C@H]4CC[C@H](NC(=O)[C@@H]5NC6(CCCCC6)[C@@]6(C(=O)Nc7cc(Cl)ccc76)[C@H]5c5cccc(Cl)c5F)CC4)cccc3C2=O)C(=O)N1 (stereo not given in full)	0.9	> 1000	Active	1		
O=C1CCC(N2Cc3c(NC4CCN(CCNC(=O)c5ccc(NC(=O)[C@@H]6NC7(CCCCC7)[C@@]7(C(=O)Nc8cc(Cl)ccc87)[C@H]6c6cccc(Cl)c6F)cc5)CC4)cccc3C2=O)C(=O)N1 (stereo not given in full)	8	> 1000				
CN1C(=O)CCC(N2Cc3c(C#CC4CCN(C(=O)[C@H]5CC[C@H](NC(=O)[C@@H]6NC7(CCCCC7)[C@@]7(C(=O)Nc8cc(Cl)ccc87)[C@H]6c6cccc(Cl)c6F)CC5)CC4)cccc3C2=O)C1=O (stereo not given in full)					Active; Compound Showed Weaker Cell Growth Inhibition	
O=C1CCC(N2Cc3c(NCC4CN(C(=O)c5ccc(NC(=O)[C@@H]6NC7(CCCCC7)[C@@]7(C(=O)Nc8cc(Cl)ccc87)[C@H]6c6cccc(Cl)c6F)cc5)C4)cccc3C2=O)C(=O)N1 (stereo not given in full)	19	> 1000				
O=C1CCC(N2Cc3c(NCC4CN(CCNC(=O)c5ccc(NC(=O)[C@@H]6NC7(CCCCC7)[C@@]7(C(=O)Nc8cc(Cl)ccc87)[C@H]6c6cccc(Cl)c6F)cc5)C4)cccc3C2=O)C(=O)N1 (stereo not given in full)	8	> 1000				
COc1cc(NC(=O)[C@@H]2NC3(CCCCC3)[C@@]3(C(=O)Nc4cc(Cl)ccc43)[C@H]2c2cccc(Cl)c2F)ccc1C(=O)NCCCC#Cc1cccc2c1CN(C1CCC(=O)NC1=O)C2=O (stereo not given in full)	4	> 1000				
O=C(CN1CCC(NC(=O)[C@@H]2NC3(CCCCC3)[C@@]3(C(=O)Nc4cc(Cl)ccc43)[C@H]2c2cccc(Cl)c2F)CC1)NCCCC#Cc1cccc2c1CN(C1CCC(=O)NC1=O)C2=O (stereo not given in full)	5	> 1000	inactive			
O=C1CCC(N2Cc3c(C#C[C@H]4CC[C@H](NC(=O)c5ccc(NC(=O)[C@@H]6NC7(CCCCC7)[C@@]7(C(=O)Nc8cc(Cl)ccc87)[C@H]6c6cccc(Cl)c6F)cc5)CC4)cccc3C2=O)C(=O)N1 (stereo not given in full)	200	> 1000				
O=C1CCC(N2Cc3c(CCC4CCN(C(=O)c5ccc(NC(=O)[C@@H]6NC7(CCCCC7)[C@@]7(C(=O)Nc8cc(Cl)ccc87)[C@H]6c6cccc(Cl)c6F)cc5)CC4)cccc3C2=O)C(=O)N1 (stereo not given in full)	19	> 1000				
O=C1CCC(N2Cc3c(NCC4CCN(CCNC(=O)c5ccc(NC(=O)[C@@H]6NC7(CCCCC7)[C@@]7(C(=O)Nc8cc(Cl)ccc87)[C@H]6c6cccc(Cl)c6F)cc5)CC4)cccc3C2=O)C(=O)N1 (stereo not given in full)	9	> 1000				
O=C1CCC(N2Cc3c(CC[C@H]4CC[C@H](NC(=O)c5ccc(NC(=O)[C@@H]6NC7(CCCCC7)[C@@]7(C(=O)Nc8cc(Cl)ccc87)[C@H]6c6cccc(Cl)c6F)cc5)CC4)cccc3C2=O)C(=O)N1 (stereo not given in full)	34	> 1000				
O=C1CCC(N2Cc3c(C#CCCCNC(=O)C45CC(NC(=O)[C@@H]6NC7(CCCCC7)[C@@]7(C(=O)Nc8cc(Cl)ccc87)[C@H]6c6cccc(Cl)c6F)(C4)C5)cccc3C2=O)C(=O)N1 (stereo not given in full)	3	7				
O=C1CCC(N2Cc3c(C#CCCCCN4CCC(NC(=O)C5CCC(NC(=O)[C@@H]6NC7(CCCCC7)[C@@]7(C(=O)Nc8cc(Cl)ccc87)[C@H]6c6cccc(Cl)c6F)CC5)CC4)cccc3C2=O)C(=O)N1 (stereo not given in full)	> 1000	> 1000				
O=C1CCC(N2Cc3c(C#CCCCNC(=O)c4cccc(NC(=O)[C@@H]5NC6(CCCCC6)[C@@]6(C(=O)Nc7cc(Cl)ccc76)[C@H]5c5cccc(Cl)c5F)c4)cccc3C2=O)C(=O)N1 (stereo not given in full)	3	3				Active
O=C1CCC(N2Cc3c(NC4CN(C(=O)c5ccc(NC(=O)[C@@H]6NC7(CCCCC7)[C@@]7(C(=O)Nc8cc(Cl)ccc87)[C@H]6c6cccc(Cl)c6F)cc5)C4)cccc3C2=O)C(=O)N1 (stereo not given in full)	37	> 1000				
COc1cc(C(=O)NCCCC#Cc2cccc3c2CN(C2CCC(=O)NC2=O)C3=O)ccc1NC(=O)[C@@H]1NC2(CCCCC2)[C@@]2(C(=O)Nc3cc(Cl)ccc32)[C@H]1c1cccc(Cl)c1F (stereo not given in full)	8	> 1000				
O=C1CCC(N2Cc3c(C#CCCCNC(=O)C45CCC(NC(=O)[C@@H]6NC7(CCCCC7)[C@@]7(C(=O)Nc8cc(Cl)ccc87)[C@H]6c6cccc(Cl)c6F)(CC4)C5)cccc3C2=O)C(=O)N1 (stereo not given in full)	2	3				
O=C1CCC(N2Cc3c(C#CCCCNC(=O)[C@H]4C[C@H](NC(=O)[C@@H]5NC6(CCCCC6)[C@@]6(C(=O)Nc7cc(Cl)ccc76)[C@H]5c5cccc(Cl)c5F)C4)cccc3C2=O)C(=O)N1 (stereo not given in full)	3	7				
O=C1CCC(N2Cc3c(C#CCCCNC(=O)c4ccc(NC(=O)[C@@H]5NC6(CCCCC6)[C@@]6(C(=O)Nc7cc(Cl)ccc76)[C@H]5c5cccc(Cl)c5F)nc4)cccc3C2=O)C(=O)N1 (stereo not given in full)	2	> 1000				
O=C1CCC(N2Cc3c(C#CCCCNC(=O)c4ccc(NC(=O)[C@@H]5NC6(CCCCC6)[C@@]6(C(=O)Nc7cc(Cl)ccc76)[C@H]5c5cccc(Cl)c5F)cn4)cccc3C2=O)C(=O)N1 (stereo not given in full)	7	> 1000				
O=C1CCC(N2Cc3c(NCC4CCN(C(=O)c5ccc(NC(=O)[C@@H]6NC7(CCCCC7)[C@@]7(C(=O)Nc8cc(Cl)ccc87)[C@H]6c6cccc(Cl)c6F)cc5)CC4)cccc3C2=O)C(=O)N1 (stereo not given in full)	19	> 1000				
O=C1CCC(N2Cc3c(C#CCCCNC(=O)c4ccc(NC(=O)[C@@H]5NC6(CCCCC6)[C@@]6(C(=O)Nc7cc(Cl)ccc76)[C@H]5c5cccc(Cl)c5F)c(F)c4)cccc3C2=O)C(=O)N1 (stereo not given in full)	8	> 1000				
O=C1CCC(N2Cc3c(NC4CN(CCNC(=O)c5ccc(NC(=O)[C@@H]6NC7(CCCCC7)[C@@]7(C(=O)Nc8cc(Cl)ccc87)[C@H]6c6cccc(Cl)c6F)cc5)C4)cccc3C2=O)C(=O)N1 (stereo not given in full)	50	> 1000				
O=C1CCC(N2Cc3c(CCc4cn(CCCNC(=O)c5ccc(NC(=O)[C@@H]6NC7(CCCCC7)[C@@]7(C(=O)Nc8cc(Cl)ccc87)[C@H]6c6cccc(Cl)c6F)cc5)cn4)cccc3C2=O)C(=O)N1 (stereo not given in full)	7	> 1000	Active; Compound Showed Minimal Tumor Growth Inhibition			
O=C1CCC(N2Cc3c(C#CCCCNC(=O)C45CCC(NC(=O)[C@@H]6NC7(CCCCC7)[C@@]7(C(=O)Nc8cc(Cl)ccc87)[C@H]6c6cccc(Cl)c6F)(CC4)CC5)cccc3C2=O)C(=O)N1 (stereo not given in full)	3	> 1000				
O=C1CCC(N2Cc3c(NC4CCN(C(=O)c5ccc(NC(=O)[C@@H]6NC7(CCCCC7)[C@@]7(C(=O)Nc8cc(Cl)ccc87)[C@H]6c6cccc(Cl)c6F)cc5)CC4)cccc3C2=O)C(=O)N1 (stereo not given in full)	19	33				
